Here are results for 26 molecules from patent US20240368104A1, “Novel Dialkoxynaphtho[2,3-C]Furan-1(3H)-One Derivatives and Pharmaceutical Composition For Preventing or Treating Respiratory Disease or SARS-COV-2 Infection Disease, Comprising Same” (priority 2021, published 2024).

One data set can be described thus: in vitro. Particulars: African green monkey.
The next data set relates to SARS-COV-2. The experiment in a line: microbe, parasite or virus in culture. Particulars: for SI (Selectivity Index, CC50/IC50): SARS-COV-2, values >50 assumed to be 50; for IC50: read-out: SARS-COV-2 inhibition (IC50). In kind it is cell-based. On the set-up: SI (Selectivity Index, CC50/IC50): unit not given here.
[1] abbreviates: Severe acute respiratory syndrome coronavirus 2, Vero cells, 24 hours infection.
Where [2] appears, read: Severe acute respiratory syndrome coronavirus 2, Vero, 24 h.

Structures are written as SMILES. Where a name gives a salt, the structure may show the parent alone. Read-outs that look alike come from different tables or passages of the source.

`COc1cc2cc3c(c(-c4ccnc5c(OC)cccc45)c2cc1OC)C(=O)OC3` [Example 140, 6,7-dimethoxy-9-(8-methoxyquinolin-4-yl)naphtho[2,3-c]furan-1(3H)-one] yielded a CC50 in the data set “in vitro” greater than 50 µM. The “SI (Selectivity Index, CC50/IC50)” value in the data set with SARS-COV-2 is 1.0. In addition, the 50% inhibitory concentration (IC50) in the data set on SARS-COV-2 (setting [1]) is greater than 50 µM.
`COc1cc2cc3c(c(-c4ccc(N(C)C5CC5)nc4)c2cc1OC)C(=O)OC3` [Example 171, 9-(6-(cyclopropyl(methyl)amino)pyridin-3-yl)-6,7-dimethoxynaphtho[2,3-c]furan-1(3H)-one] registered a CC50 in the data set “in vitro” greater than 50 µM. In the data set on SARS-COV-2, the “SI (Selectivity Index, CC50/IC50)” value was found to be 885.42. For the same molecule, the 50% inhibitory concentration (IC50) in the data set with SARS-COV-2 (setting [1]) came out at 0.06 µM.
On the same counts, the results for `COc1cc2cc3c(c(-c4cnc(N(C)C5CC5)nc4)c2cc1OC)C(=O)OC3` [Example 70, 9-(2-(cyclopropyl(methyl)amino)pyrimidin-5-yl)-6,7-dimethoxynaphtho[2,3-c]furan-1(3H)-one] are greater than 50 µM, 92.84 and 0.54 µM.
With `CCN(CCO)c1ncc(-c2c3c(cc4cc(OC)c(OC)cc24)COC3=O)cn1.Cl` [Example 81, 9-(2-(ethyl(2-hydroxyethyl)amino)pyrimidin-5-yl)-6,7-dimethoxynaphtho[2,3-c]furan-1(3H)-one hydrochloride], the CC50 in the data set “in vitro” was greater than 50 µM. Moreover, the “SI (Selectivity Index, CC50/IC50)” value in the data set on SARS-COV-2 is listed as 2.43. Also, the IC50 with SARS-COV-2 (setting [2]) came to 20.6 µM.
Consider `COc1cc2cc3c(c(-c4ccc(N(C)Cc5ccc(C)o5)nc4)c2cc1OC)C(=O)OC3` [Example 179, 6,7-dimethoxy-9-(6-(methyl((5-methylfuran-2-yl)methyl)amino)pyridin-3-yl)naphtho[2,3-c]furan-1(3H)-one], for which, in the data set “in vitro”, the CC50 is greater than 50 µM. Also, the “SI (Selectivity Index, CC50/IC50)” value in the data set with SARS-COV-2 was determined as 49.02. Moreover, the IC50 in the data set on SARS-COV-2 (setting [1]) was found to be 1.02 µM.
The molecule `COc1cc2c(OC)c3c(c(-c4ccc5c(c4)OCO5)c2cc1OC)COC3=O` [Example 262, 4-(benzo[d][1,3]dioxol-5-yl)-6,7,9-trimethoxynaphtho[2,3-c]furan-1(3H)-one] had a CC50 in the data set “in vitro” greater than 50 µM. In addition, the “SI (Selectivity Index, CC50/IC50)” value in the data set with SARS-COV-2 came out at 5.40. Besides, the IC50 in the data set with SARS-COV-2 (setting [2]) is 9.26 µM.
Consider `COc1cc2cc3c(c(-c4cnc(Cl)c(N(C)C)c4)c2cc1OC)C(=O)OC3` [Example 201, 9-(6-chloro-5-(dimethylamino)pyridin-3-yl)-6,7-dimethoxynaphtho[2,3-c]furan-1(3H)-one], for which, in “in vitro”, the CC50 was greater than 50 µM. In addition, the “SI (Selectivity Index, CC50/IC50)” value in the data set with SARS-COV-2 came to 39.52. In addition, the IC50 in the data set on SARS-COV-2 (setting [1]) came out at 1.27 µM.
For the molecule `CC[C@@H]1CCCCN1c1ncc(-c2c3c(cc4cc(OC)c(OC)cc24)COC3=O)cn1` [Example 113, (R)-9-(2-(2-ethylpiperidin-1-yl)pyrimidin-5-yl)-6,7-dimethoxynaphtho[2,3-c]furan-1(3H)-one], the CC50 in the data set “in vitro” is greater than 50 µM. Moreover, the “SI (Selectivity Index, CC50/IC50)” value with SARS-COV-2 stood at 50.52. Besides, the IC50 in the data set with SARS-COV-2 (setting [1]) is 0.99 µM.
On the same counts, the results for `COc1cc2cc3c(c(-c4cnc(N5CCC(N(C)C)CC5)nc4)c2cc1OC)C(=O)OC3` [Example 205, 9-(2-(4-(dimethylamino)piperidin-1-yl)pyrimidin-5-yl)-6,7-dimethoxynaphtho[2,3-c]furan-1(3H)-one] are greater than 50 µM, 7.75 and 6.46 µM.
With `COc1cc2cc3c(c(-c4cnc(N(C)CCCN5CCOCC5)nc4)c2cc1OC)C(=O)OC3` [Example 112, 6,7-dimethoxy-9-(2-(methyl(3-morpholinopropyl)amino)pyrimidin-5-yl)naphtho[2,3-c]furan-1(3H)-one dihydrochloride], the CC50 in the data set “in vitro” was greater than 50 µM. In addition, the “SI (Selectivity Index, CC50/IC50)” value in the data set with SARS-COV-2 is 6.70. The IC50 in the data set on SARS-COV-2 (setting [2]) turned out to be 7.46 µM.
Consider `COc1cc2cc3c(c(-c4ccc(-c5c(OC)ncnc5OC)cc4)c2cc1OC)C(=O)OC3` [Example 157, 9-(4-(4,6-dimethoxypyrimidin-5-yl)phenyl)-6,7-dimethoxynaphtho[2,3-c]furan-1(3H)-one], for which, in the data set “in vitro”, the CC50 is greater than 50 µM. In addition, the “SI (Selectivity Index, CC50/IC50)” value in the data set on SARS-COV-2 is 1.0. Further, the IC50 in the data set with SARS-COV-2 (setting [1]) was greater than 50 µM.
Take `COc1cc2cc3c(c(-c4ccc(N(C)C(C)C)nc4)c2cc1OC)C(=O)OC3` [Example 188, 9-(6-(isopropyl(methyl)amino)pyridin-3-yl)-6,7-dimethoxynaphtho[2,3-c]furan-1(3H)-one]: the CC50 in the data set “in vitro” is greater than 50 µM. For the same molecule, the “SI (Selectivity Index, CC50/IC50)” value in the data set with SARS-COV-2 is 1418.97. Besides, the IC50 in the data set with SARS-COV-2 (setting [1]) turned out to be 0.04 µM.
On to `COc1cc2cc3c(c(-c4ccc(N(C)c5ccc(N(C)C(C)=O)cc5)nc4)c2cc1OC)C(=O)OC3.Cl` [Example 236, N-(4-((5-(6,7-dimethoxy-3-oxo-1,3-dihydronaphtho[2,3-c]furan-4-yl)pyridin-2-yl)(methyl)amino)phenyl)-N-methylacetamide], for which, in the data set “in vitro”, the CC50 was greater than 50 µM. Moreover, the “SI (Selectivity Index, CC50/IC50)” value with SARS-COV-2 is reported as 30.25. For the same molecule, the IC50 in the data set with SARS-COV-2 (setting [2]) amounted to 1.65 µM.
Molecule `CCCCCCCCN(CCCCCCCC)c1ncc(-c2c3c(cc4cc(OC)c(OC)cc24)COC3=O)cn1.Cl` [Example 95, 9-(2-(dioctylamino)pyrimidin-5-yl)-6,7-dimethoxynaphtho[2,3-c]furan-1(3H)-one hydrochloride] displayed a CC50 in the data set “in vitro” greater than 50 µM. Also, the “SI (Selectivity Index, CC50/IC50)” value with SARS-COV-2 is recorded as 1.00. In addition, the IC50 with SARS-COV-2 (setting [2]) was greater than 50 µM.
`CCN(C)c1ccc(-c2c3c(cc4cc(OC)c(OC)cc24)COC3=O)cc1` [Example 248, 9-(4-(ethyl(methyl)amino)phenyl)-6,7-dimethoxynaphtho[2,3-c]furan-1(3H)-one] registered a CC50 in “in vitro” greater than 50 µM. Also, the “SI (Selectivity Index, CC50/IC50)” value in the data set on SARS-COV-2 is 344.5. Moreover, the IC50 in the data set on SARS-COV-2 (setting [1]) was less than 0.098 µM.
As to `CCCCCCCCCCN(CCCCCCCCCC)c1ncc(-c2c3c(cc4cc(OC)c(OC)cc24)COC3=O)cn1.Cl` [Example 87, 9-(2-(didecylamino)pyrimidin-5-yl)-6,7-dimethoxynaphtho[2,3-c]furan-1(3H)-one hydrochloride], the CC50 in the data set “in vitro” was greater than 50 µM. In the data set with SARS-COV-2, the “SI (Selectivity Index, CC50/IC50)” value came out at 1.00. In addition, the IC50 with SARS-COV-2 (setting [2]) was greater than 50 µM.
Turning to `COc1cc2cc3c(c(-c4ccc5occc5c4)c2cc1OC)C(=O)OC3` [Example 52, 9-(benzofuran-5-yl)-6,7-dimethoxynaphtho[2,3-c]furan-1(3H)-one], in the data set “in vitro”, the CC50 was greater than 50 µM. The “SI (Selectivity Index, CC50/IC50)” value in the data set on SARS-COV-2 was determined as 35.13. Also, the IC50 in the data set with SARS-COV-2 (setting [1]) came to 1.42 µM.
Molecule `COCCN(C)c1ccc(-c2c3c(c(OC)c4cc(OC)c(OC)cc24)C(=O)OC3)cn1.Cl` [Example 265, 6,7,9-trimethoxy-4-(6-((2-methoxyethyl)(methyl)amino)pyridin-3-yl)naphtho[2,3-c]furan-1(3H)-one] registered a CC50 in the data set “in vitro” greater than 50 µM. The “SI (Selectivity Index, CC50/IC50)” value in the data set with SARS-COV-2 came out at 1.51. In addition, the IC50 in the data set on SARS-COV-2 (setting [2]) amounted to 33 µM.
Turning to `COc1cc2cc3c(c(-c4ccc(N5CCCCC5)cc4)c2cc1OC)C(=O)OC3` [Example 242, 6,7-dimethoxy-9-(4-(piperidin-1-yl)phenyl)naphtho[2,3-c]furan-1(3H)-one], the CC50 in “in vitro” came out at 10.6 µM. For the same molecule, the “SI (Selectivity Index, CC50/IC50)” value with SARS-COV-2 was determined as 5.45. The IC50 in the data set on SARS-COV-2 (setting [1]) amounted to 1.94 µM.
Molecule `COc1cc2c(OC)c3c(c(-c4ccc(N(C)C5Cc6ccccc6C5)nc4)c2cc1OC)COC3=O.Cl` [Example 268, 4-(6-((2,3-dihydro-1H-indan-2-yl)(methyl)amino)pyridin-3-yl)-6,7,9-trimethoxynaphtho[2,3-c]furan-1(3H)-one] returned a CC50 in the data set “in vitro” greater than 50 µM. The “SI (Selectivity Index, CC50/IC50)” value in the data set with SARS-COV-2 turned out to be 1.00. Besides, the IC50 with SARS-COV-2 (setting [2]) was greater than 50 µM.
In “in vitro”, `COC(=O)CN(C)c1ncc(-c2c3c(cc4cc(OC)c(OC)cc24)COC3=O)cn1.Cl` [Example 90, methyl N-(5-(6,7-dimethoxy-3-oxo-1,3-dihydronaphtho[2,3-c]furan-4-yl)pyrimidin-2-yl)-N-methyl glycinate hydrochloride] displayed a CC50 greater than 50 µM. In addition, the “SI (Selectivity Index, CC50/IC50)” value with SARS-COV-2 came out at 16.96. Also, the IC50 in the data set with SARS-COV-2 (setting [2]) stood at 2.95 µM.
In the case of `COc1ccc2c(-c3c4c(cc5cc(OC)c(OC)cc35)COC4=O)ccnc2c1` [Example 150, 6,7-dimethoxy-9-(7-methoxyquinolin-4-yl)naphtho[2,3-c]furan-1(3H)-one], the CC50 in “in vitro” was greater than 50 µM. In addition, in the data set on SARS-COV-2, the “SI (Selectivity Index, CC50/IC50)” value was 1.0. The IC50 with SARS-COV-2 (setting [1]) is greater than 50 µM.
Take `COc1cc2cc3c(c(-c4ccc(N(C)c5nc6ccccc6s5)nc4)c2cc1OC)C(=O)OC3.Cl` [Example 225, 9-(6-(benzo[d]thiazol-2-yl(methyl)amino)pyridin-3-yl)-6,7-dimethoxynaphtho[2,3-c]furan-1(3H)-one]: the CC50 in “in vitro” stood at 32.4 µM. The “SI (Selectivity Index, CC50/IC50)” value in the data set with SARS-COV-2 stood at 0.65. Besides, the IC50 in the data set with SARS-COV-2 (setting [2]) is greater than 50 µM.
Molecule `CCN(c1ccc(-c2c3c(cc4cc(OC)c(OC)cc24)COC3=O)cn1)C(C)C` [Example 182, 9-(6-(ethyl(isopropyl)amino)pyridin-3-yl)-6,7-dimethoxynaphtho[2,3-c]furan-1(3H)-one] had a CC50 in “in vitro” greater than 50 µM. Also, the “SI (Selectivity Index, CC50/IC50)” value in the data set with SARS-COV-2 is on record as 75.67. Besides, the IC50 with SARS-COV-2 (setting [1]) amounted to 0.66 µM.
For the molecule `COC[C@@H]1CCCN1c1ncc(-c2c3c(cc4cc(OC)c(OC)cc24)COC3=O)cn1.Cl` [Example 97, (S)-6,7-dimethoxy-9-(2-(2-(methoxymethyl)pyrrolidin-1-yl)pyrimidin-5-yl)naphtho[2,3-c]furan-1(3H)-one hydrochloride], the CC50 in the data set “in vitro” was greater than 50 µM. Further, the “SI (Selectivity Index, CC50/IC50)” value in the data set on SARS-COV-2 is given as 8.74. Further, the concentration for half-maximal inhibition (IC50) with SARS-COV-2 (setting [2]) turned out to be 5.72 µM.
`COc1cc2cc3c(c(-c4ccc(N(C)Cc5cccs5)nc4)c2cc1OC)C(=O)OC3` [Example 198, 6,7-dimethoxy-9-(6-(methyl(thiophen-2-ylmethyl)amino)pyridin-3-yl)naphtho[2,3-c]furan-1(3H)-one] returned a CC50 in “in vitro” greater than 50 µM. The “SI (Selectivity Index, CC50/IC50)” value with SARS-COV-2 was 48.47. Besides, the IC50 in the data set with SARS-COV-2 (setting [1]) amounted to 1.03 µM.
